# Assays:
# Format in all cases: binding
# [1] = target: T1, SSTR5 (Homo sapiens, UniProt P35346); assay: NanoBRET screen HiBiT-SSTR5 in HEK293; details: SSTR5
# T1 construct: purchased Promega (in-house HiBiT-GPCR construct library, NanoBRET)
# Procedure: (§1) Each tracer candidate was screened across the entire library of HiBiT-GPCR constructs using NanoBRET as the detection modality. As depicted in Figure 4A, the specificity of interactions was evaluated through decrease in BRET due to competitive displacement of a bound tracer by excess parental compound. Each tracer was analyzed for binding to each HiBiT-GPCR fusion in the absence and in the presence of competing parental compound. Briefly, HEK293 cells were transfected with HiBiT-GPCR constructs diluted into promoterless DNA to reduce expression and maximize translocation to the cell surface. Each tracer candidate was then screened at concentrations of 1 μM and 0.1 μM across cells expressing these fusions. Cells were treated for 1.5 h with tracer either alone or in the presence of 20 μM competing parental compound (i.e., control). BRET was measured upon addition of purified LgBiT and subsequent complementation with HiBiT genetically fused to a GPCR. The specificity of interactions was assessed through a decrease in BRET signal due to competitive displacement of the bound tracer. To further gauge the robustness of these interactions, the fold response over the control (i.e., BRETtracer/BRETcontrol) was calculated. We chose a 1.5-fold response, which translates to ≥7-fold signal over noise as the minimal threshold required to score an interaction as positive. […]. Below we highlight the screening results obtained for our exemplary fluorescent tracers based on Clozapine, Amitriptyline and AZD1283.
# (§2) HiBiT-GPCR DNA constructs were diluted in 10 mM Tris pH 8 to a final concentration of 0.01 μg/μL, arrayed in 96-well plates and stored at −20 °C. For transfection, HEK293 cells were suspended in Opti-MEM (without phenol red) supplemented with 2% fetal bovine serum (Seradigm) and 100 units/mL penicillin–streptomycin (Gibco) at a final concentration of 220,000 cells/mL and dispensed into white 96-well plates at 90 μL/well. Subsequent transfections and screens were carried using an Agilent Bravo Automated Liquid Handling Platform. First, the 96-well HiBiT DNA arrays were diluted 25-fold in Opti-MEM (without serum or phenol red) to a final concentration of 0.0004 μg/μL and 20 μL of the diluted DNAs were transferred into new 96-well plates. Next, promoterless carrier DNA (1 μg/μL) was diluted 25-fold (0.04 μg/μL) and then dispensed into the diluted arrays at 20 μL/well. Following brief mixing, Viafect transfection reagent (Promega) diluted 16-fold into Opti-MEM was dispensed into the plates at 40 μL/well. After mixing by pipetting, plates were incubated for 10 min on the pipetting station deck. The DNA-transfection reagent complexes were then added to plates containing cells. To facilitate the screen, 10 μL of DNA-transfection reagent complexes were added in duplicates to the top 4 and bottom 4 rows, resulting in two identical 48-well arrays per plate. Plates with transfected cells were incubated for 18–20 h at 37 °C/5% CO2. A screen of each tracer across the entire library using two different concentrations requires duplicate plates of transfected cells. Depending on the number of tracers being screened, transfections can be scaled up using the same ratios. The next day, for each tracer, four 20× screening solutions in tracer dilution buffer (Promega) were prepared: two duplicates at final concentration of 20 μM and two duplicates at a final concentration of 2 μM. A competing unmodified compound was added to one of each duplicate at a final concentration of 400 μM. The four resulting solutions were diluted 4-fold in Opti-MEM without serum or phenol red to generate 5× solutions (5 µM and 0.5 µM tracer +/− 100 μM competing compound). To screen the library, a BioTek MultiFlo FX liquid dispenser was used to dispense 22.5 µL of tracer solution to the top 4 rows and 22.5 µL tracer + competing compound solution to the 4 bottom rows. Plates were briefly mixed on an orbital shaker and incubated for 1.5 h at room temperature. […]
# [2] = target: T2, RXFP2 (Homo sapiens, UniProt Q8WXD0); assay: NanoBRET screen HiBiT-RXFP2 in HEK293; details: RXFP2
# T2 construct: purchased Promega (in-house HiBiT-GPCR construct library, NanoBRET)
# T2 sequence (Q8WXD0 whole entry): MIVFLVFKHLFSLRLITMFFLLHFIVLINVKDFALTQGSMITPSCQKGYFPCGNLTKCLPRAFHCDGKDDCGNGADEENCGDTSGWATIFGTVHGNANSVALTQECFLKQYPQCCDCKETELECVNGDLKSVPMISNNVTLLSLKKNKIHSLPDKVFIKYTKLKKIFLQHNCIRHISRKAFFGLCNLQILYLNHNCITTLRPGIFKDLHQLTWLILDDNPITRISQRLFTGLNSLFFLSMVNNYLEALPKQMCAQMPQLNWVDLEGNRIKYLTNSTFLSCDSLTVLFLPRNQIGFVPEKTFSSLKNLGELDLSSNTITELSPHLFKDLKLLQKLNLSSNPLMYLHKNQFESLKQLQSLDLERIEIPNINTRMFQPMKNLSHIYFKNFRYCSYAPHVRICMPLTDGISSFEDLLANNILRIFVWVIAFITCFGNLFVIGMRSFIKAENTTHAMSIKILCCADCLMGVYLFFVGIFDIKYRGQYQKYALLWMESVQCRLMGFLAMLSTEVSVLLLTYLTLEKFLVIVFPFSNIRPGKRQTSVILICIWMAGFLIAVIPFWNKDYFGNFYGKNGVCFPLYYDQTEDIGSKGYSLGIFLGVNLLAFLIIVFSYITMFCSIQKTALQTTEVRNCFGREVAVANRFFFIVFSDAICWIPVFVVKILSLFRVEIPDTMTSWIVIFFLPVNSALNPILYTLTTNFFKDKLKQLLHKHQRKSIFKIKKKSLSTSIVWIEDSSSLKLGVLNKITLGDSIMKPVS
# Procedure: as §1, §2
# [3] = target: T3, SSTR3 (Homo sapiens, UniProt P32745); assay: NanoBRET screen HiBiT-SSTR3 in HEK293; details: SSTR3
# T3 construct: purchased Promega (in-house HiBiT-GPCR construct library, NanoBRET)
# T3 sequence (P32745 whole entry): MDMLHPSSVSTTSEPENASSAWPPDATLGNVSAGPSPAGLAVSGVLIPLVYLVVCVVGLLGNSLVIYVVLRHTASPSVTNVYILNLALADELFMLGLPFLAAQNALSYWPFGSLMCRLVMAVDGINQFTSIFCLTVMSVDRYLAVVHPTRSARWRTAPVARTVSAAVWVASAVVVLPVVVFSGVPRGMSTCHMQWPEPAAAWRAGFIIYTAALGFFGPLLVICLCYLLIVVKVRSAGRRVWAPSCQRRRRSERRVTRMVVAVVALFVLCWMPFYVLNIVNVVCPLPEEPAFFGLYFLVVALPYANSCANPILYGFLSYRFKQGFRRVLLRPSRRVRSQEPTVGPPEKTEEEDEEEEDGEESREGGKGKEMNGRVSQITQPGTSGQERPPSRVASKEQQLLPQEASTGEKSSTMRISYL
# Procedure: as §1, §2
# [4] = target: T4, FZD2 (Homo sapiens, UniProt Q14332); assay: NanoBRET screen HiBiT-FZD2 in HEK293; details: FZD2
# T4 construct: purchased Promega (in-house HiBiT-GPCR construct library, NanoBRET)
# T4 sequence (Q14332 24-565): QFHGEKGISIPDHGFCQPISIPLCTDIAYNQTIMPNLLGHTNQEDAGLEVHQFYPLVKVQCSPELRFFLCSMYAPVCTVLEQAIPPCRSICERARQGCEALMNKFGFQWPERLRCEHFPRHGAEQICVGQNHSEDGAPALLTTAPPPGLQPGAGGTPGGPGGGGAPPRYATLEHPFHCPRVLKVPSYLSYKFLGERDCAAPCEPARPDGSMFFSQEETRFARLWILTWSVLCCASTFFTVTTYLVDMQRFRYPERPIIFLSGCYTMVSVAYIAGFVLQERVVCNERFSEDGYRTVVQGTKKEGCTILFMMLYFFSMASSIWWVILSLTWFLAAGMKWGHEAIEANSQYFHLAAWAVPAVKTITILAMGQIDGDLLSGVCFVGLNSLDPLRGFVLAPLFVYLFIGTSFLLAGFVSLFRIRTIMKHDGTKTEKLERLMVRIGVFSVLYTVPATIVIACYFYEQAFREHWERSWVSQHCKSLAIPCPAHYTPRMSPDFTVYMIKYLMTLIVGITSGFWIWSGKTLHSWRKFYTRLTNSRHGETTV
# Procedure: as §1, §2
# [5] = target: T5, NMUR1 (Homo sapiens, UniProt Q9HB89); assay: NanoBRET screen HiBiT-NMUR1 in HEK293; details: NMUR1
# T5 construct: purchased Promega (in-house HiBiT-GPCR construct library, NanoBRET)
# T5 sequence (Q9HB89 1-426): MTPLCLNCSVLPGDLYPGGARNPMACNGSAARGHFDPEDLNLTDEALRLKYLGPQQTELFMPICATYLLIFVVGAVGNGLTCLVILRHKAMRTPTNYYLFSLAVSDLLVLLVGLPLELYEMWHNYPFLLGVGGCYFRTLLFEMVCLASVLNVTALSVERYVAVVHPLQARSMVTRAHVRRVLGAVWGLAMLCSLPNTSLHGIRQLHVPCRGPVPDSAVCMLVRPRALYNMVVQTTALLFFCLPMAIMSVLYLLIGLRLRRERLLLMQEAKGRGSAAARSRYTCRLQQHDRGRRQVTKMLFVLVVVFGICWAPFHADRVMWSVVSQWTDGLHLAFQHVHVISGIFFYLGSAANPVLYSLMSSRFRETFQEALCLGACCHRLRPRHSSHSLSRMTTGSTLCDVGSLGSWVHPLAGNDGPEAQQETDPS
# Procedure: as §1, §2
# [6] = target: T6, GCGR (Homo sapiens, UniProt P47871); assay: NanoBRET screen HiBiT-GCGR in HEK293; details: GCGR
# T6 construct: purchased Promega (in-house HiBiT-GPCR construct library, NanoBRET)
# T6 sequence (P47871 26-477): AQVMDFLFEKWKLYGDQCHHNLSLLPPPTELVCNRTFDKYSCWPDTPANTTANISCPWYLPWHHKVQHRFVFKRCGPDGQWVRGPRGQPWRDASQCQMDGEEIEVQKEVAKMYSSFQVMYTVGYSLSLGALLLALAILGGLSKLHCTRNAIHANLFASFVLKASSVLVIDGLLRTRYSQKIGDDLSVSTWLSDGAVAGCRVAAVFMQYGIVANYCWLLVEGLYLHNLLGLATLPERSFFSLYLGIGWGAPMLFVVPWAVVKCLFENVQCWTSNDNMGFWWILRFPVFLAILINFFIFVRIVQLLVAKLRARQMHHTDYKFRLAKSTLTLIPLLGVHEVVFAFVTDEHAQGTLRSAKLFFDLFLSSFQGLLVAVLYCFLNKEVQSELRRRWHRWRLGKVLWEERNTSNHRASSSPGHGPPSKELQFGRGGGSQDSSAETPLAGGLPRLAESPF
# Procedure: as §1, §2
# [7] = target: T7, CXCR5 (Homo sapiens, UniProt P32302); assay: NanoBRET screen HiBiT-CXCR5 in HEK293; details: CXCR5
# T7 construct: purchased Promega (in-house HiBiT-GPCR construct library, NanoBRET)
# T7 sequence (P32302 1-372): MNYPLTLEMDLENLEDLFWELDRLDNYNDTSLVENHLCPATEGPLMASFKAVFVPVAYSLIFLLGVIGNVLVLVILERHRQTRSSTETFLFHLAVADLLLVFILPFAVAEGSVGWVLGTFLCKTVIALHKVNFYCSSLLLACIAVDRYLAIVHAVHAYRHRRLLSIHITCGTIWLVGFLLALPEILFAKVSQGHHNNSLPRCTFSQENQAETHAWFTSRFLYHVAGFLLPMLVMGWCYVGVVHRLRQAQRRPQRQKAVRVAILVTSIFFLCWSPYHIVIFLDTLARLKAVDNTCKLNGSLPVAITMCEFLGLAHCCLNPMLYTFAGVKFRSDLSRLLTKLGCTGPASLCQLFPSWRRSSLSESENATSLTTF
# Procedure: as §1, §2
# [8] = target: T8, SSTR4 (Homo sapiens, UniProt P31391); assay: NanoBRET screen HiBiT-SSTR4 in HEK293; details: SSTR4
# T8 construct: purchased Promega (in-house HiBiT-GPCR construct library, NanoBRET)
# T8 sequence (P31391 whole entry): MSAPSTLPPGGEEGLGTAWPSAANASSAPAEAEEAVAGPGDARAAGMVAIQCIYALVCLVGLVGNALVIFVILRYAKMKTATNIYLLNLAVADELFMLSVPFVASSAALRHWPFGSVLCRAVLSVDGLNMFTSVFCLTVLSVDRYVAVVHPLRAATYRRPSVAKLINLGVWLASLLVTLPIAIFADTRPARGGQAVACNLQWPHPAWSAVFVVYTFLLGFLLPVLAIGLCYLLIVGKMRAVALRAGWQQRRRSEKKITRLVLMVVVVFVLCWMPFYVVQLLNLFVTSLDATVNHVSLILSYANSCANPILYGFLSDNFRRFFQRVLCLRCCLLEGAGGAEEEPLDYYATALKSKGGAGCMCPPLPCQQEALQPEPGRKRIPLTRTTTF
# Procedure: as §1, §2
# T1 sequence (P35346 whole entry): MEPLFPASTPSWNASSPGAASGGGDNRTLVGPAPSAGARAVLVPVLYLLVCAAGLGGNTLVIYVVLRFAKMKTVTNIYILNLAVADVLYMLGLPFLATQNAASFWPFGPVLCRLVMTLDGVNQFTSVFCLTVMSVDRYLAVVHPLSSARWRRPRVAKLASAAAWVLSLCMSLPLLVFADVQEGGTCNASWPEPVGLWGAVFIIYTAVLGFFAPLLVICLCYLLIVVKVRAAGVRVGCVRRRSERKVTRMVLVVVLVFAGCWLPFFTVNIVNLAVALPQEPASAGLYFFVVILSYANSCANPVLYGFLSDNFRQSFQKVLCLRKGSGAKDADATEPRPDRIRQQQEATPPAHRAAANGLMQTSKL
Structure (SMILES),NanoBRET Fold Response ([1]; tracer 0.1μM),NanoBRET Fold Response ([1]; tracer 1μM),NanoBRET Fold Response ([2]; tracer 0.1μM),NanoBRET Fold Response ([2]; tracer 1μM),NanoBRET Fold Response ([3]; tracer 0.1μM),NanoBRET Fold Response ([3]; tracer 1μM),NanoBRET Fold Response ([4]; tracer 0.1μM),NanoBRET Fold Response ([4]; tracer 1μM),NanoBRET Fold Response ([5]; tracer 0.1μM),NanoBRET Fold Response ([5]; tracer 1μM),NanoBRET Fold Response ([6]; tracer 0.1μM),NanoBRET Fold Response ([6]; tracer 1μM),NanoBRET Fold Response ([7]; tracer 0.1μM),NanoBRET Fold Response ([7]; tracer 1μM),NanoBRET Fold Response ([8]; tracer 0.1μM),NanoBRET Fold Response ([8]; tracer 1μM),other results
O=C(CCc1ccc2n1[B-](F)(F)[N+]1=C(c3ccc[nH]3)C=CC1=C2)NCc1ccc(C(=O)NCCOCCC(=O)N[C@@H]2CC[C@@]3(O)[C@H]4Cc5ccc(O)c6c5[C@@]3(CCN4CC3CC3)[C@H]2O6)cc1 [Naltrexone-3-NB590],0.96,0.96,1.31,0.72,0.97,1.01,0.84,0.88,0.85,1.07,1.06,0.92,0.57,0.57,0.99,0.90,
Cc1cc2c(s1)Nc1ccccc1N=C2N1CCN(CCCNC(=O)CCOCCOCCOCCOCCNC(=O)CCc2ccc3n2[B-](F)(F)[N+]2=C(c4ccc[nH]4)C=CC2=C3)CC1 [Olanzapine-a-2-NB590],1.01,1.02,0.27,0.46,0.99,1.04,0.98,0.90,0.98,1.00,0.97,0.95,0.98,0.86,0.98,1.04,
O=C(CCc1ccc2n1[B-](F)(F)[N+]1=C(c3ccc[nH]3)C=CC1=C2)NCc1ccc(C(=O)NCCOCCOCCNCC(O)COc2cccc3ccccc23)cc1 (stereo not shown) [Propranolol-3-NB590],,,,,,,,,,,,,,,,,NanoBRET Fold Response ([1]; 0.1μM): 1.01; NanoBRET Fold Response ([1]; 1μM): 1.02; NanoBRET Fold Response ([2]; 0.1μM): 0.27; NanoBRET Fold Response ([2]; 1μM): 0.78; NanoBRET Fold Response ([3]; 0.1μM): 0.99; NanoBRET Fold Response ([3]; 1μM): 1.01; NanoBRET Fold Response ([4]; 0.1μM): 0.97; NanoBRET Fold Response ([4]; 1μM): 1.01; NanoBRET Fold Response ([5]; 0.1μM): 1.01; NanoBRET Fold Response ([5]; 1μM): 1.00; NanoBRET Fold Response ([6]; 0.1μM): 1.03; NanoBRET Fold Response ([6]; 1μM): 0.96; NanoBRET Fold Response ([7]; 0.1μM): 1.02; NanoBRET Fold Response ([7]; 1μM): 1.06; NanoBRET Fold Response ([8]; 0.1μM): 1.02; NanoBRET Fold Response ([8]; 1μM): 0.98
O=C(CCc1ccc2n1[B-](F)(F)[N+]1=C(c3ccc[nH]3)C=CC1=C2)NCCOCCOCCNC(=O)OCCOCCN1CCN(C2=Nc3ccccc3Sc3ccccc32)CC1 [Quetiapine-a-2-NB590],1.03,0.83,1.31,1.01,0.96,0.74,0.96,0.89,1.01,0.81,0.94,0.73,1.01,0.92,0.99,0.83,
Cc1nc2n(c(=O)c1CCN1CCC(c3noc4cc(F)ccc34)CC1)CCCC2OC(=O)NCCOCCOCCOCCOCCNC(=O)CCc1ccc2n1[B-](F)(F)[N+]1=C(c3ccc[nH]3)C=CC1=C2 (stereo not shown) [Risperidone-2-NB590],1.01,1.02,1.20,,0.92,0.99,1.01,1.03,1.04,0.97,0.97,0.93,1.10,0.93,1.03,1.04,

# Source: PMC8151276, “An Integrated Approach toward NanoBRET Tracers for Analysis of GPCR Ligand Engagement” (Molecules, 2021)
